This is an account of results in article PMC6300282, “Sulphamethazine derivatives as immunomodulating agents: New therapeutic strategies for inflammatory diseases” (PLoS ONE, 2018).

Series [1] has as its system Pseudomonas aeruginosa (POA 286). Nature of the series: Microplate Alamar Blue Assay, Pseudomonas aeruginosa. It counts as cell-based. Conditions: 200 μg/mL, NI = No inhibition; for inhibition at 200 µg/mL: Pseudomonas aeruginosa, read-out: Percentage (%) Inhibition, Pseudomonas aerugenosa. The method, then: (§1) The anti-bacterial activity of synthesized compound were evaluated by the Microplate Alamar Blue Assay. Staphylococcus aureus (ATCC 25923), Pseudomonas aeruginosa(POA 286), Salmonella typhi (ATCC 14028), Bacillus subtilis ATCC 6633) and Escherichia coli (ATCC 12022) were used in this study as a standard bacterial strains and they were obtained from microbial bank of PCMD, International Center for Chemical and Biological Sciences, University of Karachi, Karachi-75270, Pakistan. The bacterial colonies grown in Trypton Soya Agar (TSA) (Oxoid Limited, UK) were inoculated in Mueller Hinton Broth (MHB) (Oxoid Limited, UK) and incubated overnight at 37 °C. Fully grown bacterial cultures were then diluted to adjust with 0.5 McFarland Turbidity Index (equivalent to 1.5 × 10^8 CFU/mL). Stock solutions (4 mg/mL) of different test compounds were prepared in DMSO and 10μL each of these stock solutions were placed in well of flat bottom, polystyrene, sterile 96-wells plate except the positive control wells (media + bacteria). This gives 200μg/mL concentrations of compounds in final 200 μL solution. Each compound was run in triplicates. Finally, bacterial suspension (5 x 10^6 CFU/mL) was added in each well. Plates were sealed by parafilm and incubated at 37 °C for 18–22 hrs. Next day, 20 μL of 0.02% resazurin sodium salt dye (Chem-Impex-Int’LInc) was added in each well and incubated in shaking incubator at 80 rpm, 37 °C for 2–3 hrs. The color change from blue to reddish pink indicates the growth of bacteria. For quantitative analysis, plates were read at 570 nm and 600 nm in Multiskan GOmicroplate spectrophotometer, (Thermo Scientific, USA). The % inhibition of bacterial growth was calculated using below mentioned formula.
(§2) For the calculation of the % difference in reduction between treated and control cells in cytotoxicity/proliferation assays: =(εOX)λ2Aλ1-(εOX)λ1Aλ2oftestagent/(εOX)λ2A°λ1-(εOX)λ1A°λ2ofpositivegrowthcontrol×100
In general terms: Resazurin is reduced to fluorescent resorufin, in cell work by metabolically active cells.

For series [2], the system named is Staphylococcus aureus (ATCC 25923). Nature of the series: Microplate Alamar Blue Assay, Staphylococcus aureus. It counts as cell-based. To be noted: 200 μg/mL, NI = No inhibition; for inhibition at 200 µg/mL: Staphylococcus aureus, ATCC25923, read-out: Percentage (%) Inhibition, Staphylococcus aureus. The procedure:
as §1, §2

In series [3] the test system is Salmonella typhi (ATCC 14028). Nature of the series: Microplate Alamar Blue Assay, Salmonella typhi. It counts as cell-based. Conditions: 200 μg/mL, NI = No inhibition; for inhibition at 200 µg/mL: Salmonella enterica, read-out: Percentage (%) Inhibition, Slamonella typhi. The procedure: as §1, §2
Series [4] has as its system mouse fibroblast NIH-3T3 cell line. Briefly: MTT cytotoxicity assay. Conditions: MTT, 48 hours. It counts as cell-based. The method, then: (§3) The cytotoxicity was recorded as concentration causing 50% growth inhibition (IC50).
Background: Tetrazolium assays rely on reduction of a dye to a coloured formazan, in cell work by metabolically active cells.

For series [5], the system named is Escherichia coli (ATCC 12022). Nature of the series: Microplate Alamar Blue Assay, Escherichia coli. It counts as cell-based. To be noted: ATCC12022, 200 μg/mL, NI = No inhibition, read-out: Percentage (%) Inhibition, Escherichia coli. The method, then:
as §1, §2

A further series is described as follows: MTT cytotoxicity assay. It counts as cell-based, mouse. To be noted: mouse; MTT, 48 hours; read-out: Cytotoxicity NIH-3T3 cell line (IC50). The method, then:
as §3

In series [6] the test system is Bacillus subtilis (ATCC 6633). Nature of the series: Microplate Alamar Blue Assay, Bacillus subtilis. Conditions: ATCC6633, 200 μg/mL, NI = No inhibition, read-out: Percentage (%) Inhibition, Bacillus subtilis. It counts as cell-based. The procedure: as §1, §2
Series [7] concerns TNF-α production from THP-1 human monocytic leukemia cell line. Nature of the series: TNF-α production (ELISA), LPS stimulated THP-1 cells. It counts as cell-based. Conditions: PMA-differentiated THP-1 cells, 50 ng/mL LPS, 4 hours; three doses 1, 10, 100 μg/mL; mean ± SD of three. The source says: RPMI-1640 (R8758, Sigma Aldrich, St. Louis, USA); L-glutamine (25030081, Gibco, California, USA); D-glucose (G8270, Sigma Aldrich, St. Louis, USA); 2-mercaptoethanol (190242, MP Biomedicals, lllkirch, France); sodium pyruvate (11360–070, Gibco, California, USA); FBS (A11-104, PAA Laboratories, Pasching, Austria); HEPES (H3375, Sigma Aldrich, St. Louis, USA); PMA (151864, MP Biomedicals, lllkirch, France); lipopolysaccharide B of E. coli 0111:B4 (LPS) (3922–25, DIFCO Laboratories, USA); 24-well tissue culture plates (CLS3524, Corning, Dublin, USA); Flat bottom 96-well tissue culture plates (CLS3300, Corning, New York, USA). BSA (151429, MP Biomedicals, lllkirch, France); PBS tablets (41620016–4, Bioworld, Dublin, Ireland); Tween 20 (822184, Merck, Damstadt, Germany); Human TNF-α DuoSet ELISA Kit (DY210, R&D Systems, Minneapolis, USA); Human IL-1β DuoSet ELISA Kit (DY201, R&D Systems, Minneapolis, USA); and Human IL-2 DuoSet ELISA Kit (DY202, R&D Systems, Minneapolis, USA); ELISA plate sealers (DY992, R&D Systems, Minneapolis, USA); Clear flat bottom 96-well microplates (DY990, R&D Systems, Minneapolis, USA). Human monocytic leukemia cells THP-1 were obtained from (European Collection of Cell Cultures, UK). The cells were maintained in RPMI-1640 containing 5.5 mmol/L glucose (BioM Laboratories, Chemical Division, Malaysia), 50 μmol/L mercaptoethanol (Merck Damstadt, Germany), 10% FBS (fetal bovine serum), 2 mmol/L; L-glutamine (PAA Laboratories, GmbH, Pasching, Austria). Cells were grown in 75 cc flasks, harvested and 2.5×10^5 cells/mL was then plated in 24-well tissue culture plates. 20 ng/mL of phorbol-12-myristate-13-acetate (PMA), (SERVA, Heidelberg, Germany) was added followed by incubation for 24 hours at 37 °C in 5% CO2to convert them into macrophage like cell. Cells were then stimulated with E. coli lipopolysacchride B, (DIFCO Laboratories, michigon, USA) at a final concentration of 50 ng/mL and treated with compounds at three different concentration (1, 10 and 100 μg/mL) and then incubated for 4 hours at 37 °C in 5% CO2. The supernatants collected were analyzed for the level of TNF -α using the human TNF-α Duo Set ELISA (R&D Systems, Minneapolis, USA), and according to manufacturer’s instructions.
For orientation: In an ELISA, binding on a coated surface is turned into a signal by an enzyme label.

Molecules are shown by their SMILES.

In general, IC50 refers to the concentration at which inhibition is half-maximal. `Cc1cc(C)nc(NS(=O)(=O)c2ccc(NC(=O)c3cccc(C(F)(F)F)c3)cc2)n1` [Compound 20]: the “Percentage (%) Inhibition, Pseudomonas aerugenosa” value in series [1] was determined as 1.66%. Further, the “Percentage (%) Inhibition, Staphylococcus aureus” value in series [2] is on record as 30.78%. In addition, the “Percentage (%) Inhibition, Slamonella typhi” value in series [3] was 9.30%. The half-maximal inhibitory concentration (IC50) in [4] is > 30 µM.

As usually defined, the inhibition is how much of the control response was suppressed. For orientation: melting point means the temperature of the solid-liquid transition. As for `Cc1cc(C)cc(C(=O)Nc2ccc(S(=O)(=O)Nc3nc(C)cc(C)n3)cc2)c1` [Compound 38, N-(4-(N-(4,6-dimethylpyrimidin-2-yl)sulfamoyl)phenyl)-3,5-dimethylbenzamide], the melting point fell in the range of 216 to 218 °C. For the same molecule, the inhibition at 200 µg/mL in [1] stood at 19%. Further, the inhibition at 200 µg/mL in series [2] was < 0%. Moreover, the inhibition at 200 µg/mL in series [5] is < 0%. Moreover, in series [3], the inhibition at 200 µg/mL is < 0%. For the same molecule, in “MTT cytotoxicity assay”, the half-maximal inhibitory concentration (IC50) was > 30 µM. The inhibition at 200 µg/mL in [6] was < 0%.

In the case of `Cc1cc(C)nc(NS(=O)(=O)c2ccc(NC(=O)c3ccc(Cl)cc3Cl)cc2)n1` [Compound 24, 2,4-dichloro-N-(4-(N-(4,6-dimethylpyrimidin-2-yl)sulfamoyl)phenyl)benzamide], the melting point was in the range of 233 to 236 °C. Moreover, in [1], the inhibition at 200 µg/mL was < 0%. The inhibition at 200 µg/mL in series [2] amounted to 48.4%. The inhibition at 200 µg/mL in series [5] turned out to be 7.45%. Further, in series [3], the inhibition at 200 µg/mL was determined as 18.4%. Further, the concentration for half-maximal inhibition (IC50) in “MTT cytotoxicity assay” was > 30 µM. Further, the inhibition at 200 µg/mL in series [6] was < 0%.

`Cc1cc(C)nc(NS(=O)(=O)c2ccc(NC(=O)C34CCC(C)(C(=O)O3)C4(C)C)cc2)n1` (centres unmarked) [Compound 15, N-(4-(N-(4,6-dimethylpyrimidin-2-yl)sulfamoyl)phenyl)-4,7,7-trimethyl-3-oxo-2-oxabicyclo[2.2.1]heptane-1-carboxamide] registered a melting point of 254 to 256 °C. In series [1], the inhibition at 200 µg/mL came out at 29.4%. Moreover, the inhibition at 200 µg/mL in series [2] amounted to 14.1%. Further, the inhibition at 200 µg/mL in series [5] was < 0%. The inhibition at 200 µg/mL in series [3] was 29.3%. In addition, the 50% inhibitory concentration (IC50) in the series “MTT cytotoxicity assay” was > 30 µM. Further, in series [6], the inhibition at 200 µg/mL amounted to 38.4%.

For the molecule `CC(=O)CCCCn1c(=O)c2c(ncn2C)n(C)c1=O` [42 (Pentoxifillin), Pentoxifillin, reference compound], the “TNF-α Inhibition (IC50)” value in [7] worked out at 94.8 ± 2.1 µg/mL.
